Some results are limits rather than exact numbers.

The assay relates to RS4;11 cells. Briefly: Cell growth inhibition, 4-day proliferation assay (WST-8). It is filed as cell-based. As to conditions: Homo sapiens, 96 h; RS4;11 cells, 4 days, WST-8; read-out: RS4; 11 Cells IC50. The procedure:
The effect of representative Compounds of the Disclosure on cell viability was determined in a 4-day proliferation assay. Cells were maintained in the appropriate culture medium with 10% FBS at 37° C. and an atmosphere of 5% CO2. Also, the effect of a MDM2 inhibitor (Cpd. A; see Compound Example No. 22 of U.S. Pat. No. 8,629,141) and a known MDM2 degrader (Cpd. D, see Cpd. No. 175 of WO 2017/0176957) on cell viability in various cell lines is also included in Table 5. Cpd. […] A and D. The structure of Cpd. A is:
Cells were seeded in 96-well flat bottom (Corning COSTAR, Corning, N.Y., cat #3595) at a density of 2,000-3,000 cells/well in 100 μL of culture medium. Compounds were serially diluted in the appropriate medium, and 100 μL of the diluted compounds were added to the appropriate wells of the cell plate. After the addition of compounds, the cells were incubated at 37° C. in an atmosphere of 5% CO2 for 4 days. Cell viability was determined using the WST (2-(2-methoxy-4-nitrophenyl)-3-(4-nitrophenyl)-5-(2,4-disulfophenyl)-2H-tetrazolium, monosodium salt) Cell Counting-8 Kit (Dojindo Molecular Technologies, Inc., Rockville, Md.) according to the manufacturers' instructions.
WST-8 reagent was added to each well at a final concentration of 10% (v/v), and then the plates were incubated at 37° C. for 1-2 hours for color development. The absorbance was measured at 450 nm using a SPECTRAmax PLUS plate reader (Molecular Devices, Sunnyvale, Calif.). The readings were normalized to the DMSO-treated cells and the half maximal inhibitory concentration (IC50) was calculated by nonlinear regression (four parameters sigmoid fitted with variable slope, least squares fit, and no constraint) analysis using the GraphPad Prism 5 software (GraphPad Software, La Jolla, Calif.).
For orientation: Formazan colour is commonly taken as a measure of viable cells.
Consider `O=C1CCC(N2Cc3c(C#CC4CCN(C(=O)C5CCN(C(=O)[C@@H]6NC7(CCCCC7)[C@@]7(C(=O)Nc8cc(Cl)ccc87)[C@H]6c6cccc(Cl)c6F)CC5)CC4)cccc3C2=O)C(=O)N1` (stereo partly drawn) [Cpd. No. 23, 3-(4-((1-(1-((3′R,4′S,5′R)-6″-chloro-4′-(3-chloro-2-fluorophenyl)-2″-oxodispiro[cyclohexane-1,2′-pyrrolidine-3′,3″-indoline]-5′-carbonyl)piperidine-4-carbonyl)piperidin-4-yl)ethynyl)-1-oxoisoindolin-2-yl)piperidine-2,6-dione], for which the IC50 is above 100 nM.

With `CN1[C@@H](C(=O)N(C)[C@H]2CC[C@H](C(=O)N3CCC(C#Cc4cccc5c4CN(C4CCC(=O)NC4=O)C5=O)CC3)CC2)[C@H](c2cccc(Cl)c2F)[C@]2(C(=O)Nc3cc(Cl)ccc32)C12CCCCC2` (stereo partly drawn) [Cpd. No. 16, (3′R,4′S,5′R)-6″-chloro-4′-(3-chloro-2-fluorophenyl)-N-((1r,4R)-4-(4-((2-(2,6-dioxopiperidin-3-yl)-1-oxoisoindolin-4-yl)ethynyl)piperidine-1-carbonyl)cyclohexyl)-N,1′-dimethyl-2″-oxodispiro[cyclohexane-1,2′-pyrrolidine-3′,3″-indoline]-5′-carboxamide], the IC50 was above 100 nM.

Regarding `CCN1[C@@H](C(=O)N2CCC(C(=O)N3CCC(C#Cc4cccc5c4CN(C4CCC(=O)NC4=O)C5=O)CC3)CC2)[C@H](c2cccc(Cl)c2F)[C@]2(C(=O)Nc3cc(Cl)ccc32)C12CCCCC2` (stereo partly drawn) [Cpd. No. 22, 3-(4-((1-(1-((3′R,4′S,5′R)-6″-chloro-4′-(3-chloro-2-fluorophenyl)-1′-ethyl-2″-oxodispiro[cyclohexane-1,2′-pyrrolidine-3′,3″-indoline]-5′-carbonyl)piperidine-4-carbonyl)piperidin-4-yl)ethynyl)-1-oxoisoindolin-2-yl)piperidine-2,6-dione], the IC50 was above 100 nM.

For `CN1[C@@H](C(=O)N[C@H]2CC[C@H](C(=O)N3CCC(C#Cc4cccc5c4CN(C4CCC(=O)NC4=O)C5=O)CC3)CC2)[C@H](c2cccc(Cl)c2F)[C@]2(C(=O)Nc3cc(Cl)ccc32)C12CCCCC2` (stereo partly drawn) [Cpd. No. 9, (3′R,4′S,5′R)-6″-chloro-4′-(3-chloro-2-fluorophenyl)-N-((1r,4R)-4-(4-((2-(2,6-dioxopiperidin-3-yl)-1-oxoisoindolin-4-yl)ethynyl)piperidine-1-carbonyl)cyclohexyl)-1′-methyl-2″-oxodispiro[cyclohexane-1,2′-pyrrolidine-3′,3″-indoline]-5′-carboxamide], the IC50 came out at 2.8 nM.

For `CC1(C)CCC2(CC1)N[C@@H](C(=O)NC13CCC(C(=O)N4CCC(C#Cc5cccc6c5CN(C5CCC(=O)NC5=O)C6=O)CC4)(CC1)CC3)[C@H](c1cccc(Cl)c1F)[C@]21C(=O)Nc2cc(Cl)ccc21` (stereo partly drawn) [Cpd. No. 13, (3′R,4′S,5′R)-6″-chloro-4′-(3-chloro-2-fluorophenyl)-N-(4-(4-((2-(2,6-dioxopiperidin-3-yl)-1-oxoisoindolin-4-yl)ethynyl)piperidine-1-carbonyl)bicyclo[2.2.2]octan-1-yl)-4,4-dimethyl-2″-oxodispiro[cyclohexane-1,2′-pyrrolidine-3′,3″-indoline]-5′-], the IC50 worked out at 6 nM.

On to `CC1(C)CCC2(CC1)N[C@@H](C(=O)NC1CCN(CC(=O)NCCCC#Cc3cccc4c3CN(C3CCC(=O)NC3=O)C4=O)CC1)[C@H](c1cccc(Cl)c1F)[C@]21C(=O)Nc2cc(Cl)ccc21` (stereo partly drawn) [Cpd. No. 8, (3′R,4′S,5′R)-6″-chloro-4′-(3-chloro-2-fluorophenyl)-N-(1-(2-((5-(2-(2,6-dioxopiperidin-3-yl)-1-oxoisoindolin-4-yl)pent-4-yn-1-yl)amino)-2-oxoethyl)piperidin-4-yl)-4,4-dimethyl-2″-oxodispiro[cyclohexane-1,2′-pyrrolidine-3′,3″-indoline]-5′-carboxamide], for which the IC50 came out at 4.5 nM.

On to `CN(C(=O)[C@@H]1NC2(CCCCC2)[C@@]2(C(=O)Nc3cc(Cl)ccc32)[C@H]1c1cccc(Cl)c1F)[C@H]1CC[C@H](C(=O)N2CCC(C#Cc3cccc4c3CN(C3CCC(=O)NC3=O)C4=O)CC2)CC1` (stereo partly drawn) [Cpd. No. 15, (3′R,4′S,5′R)-6″-chloro-4′-(3-chloro-2-fluorophenyl)-N-((1r,4R)-4-(4-((2-(2,6-dioxopiperidin-3-yl)-1-oxoisoindolin-4-yl)ethynyl)piperidine-1-carbonyl)cyclohexyl)-N-methyl-2″-oxodispiro[cyclohexane-1,2′-pyrrolidine-3′,3″-indoline]-5′-carboxamide], for which the IC50 was determined as 60 nM.

As to `O=C1CCC(N2Cc3c(C#CC4CCN(C(=O)[C@H]5C[C@H](NC(=O)[C@@H]6NC7(CCCCC7)[C@@]7(C(=O)Nc8cc(Cl)ccc87)[C@H]6c6cccc(Cl)c6F)C5)CC4)cccc3C2=O)C(=O)N1` (stereo partly drawn) [Cpd. No. 12, (3′R,4′S,5′R)-6″-chloro-4′-(3-chloro-2-fluorophenyl)-N-((1r,3R)-3-(4-((2-(2,6-dioxopiperidin-3-yl)-1-oxoisoindolin-4-yl)ethynyl)piperidine-1-carbonyl)cyclobutyl)-2″-oxodispiro[cyclohexane-1,2′-pyrrolidine-3′,3″-indoline]-5′-carboxamide], the IC50 was 1.4 nM.

On to `CC1(C#Cc2cccc3c2CN(C2CCC(=O)NC2=O)C3=O)CCN(C(=O)C23CCC(NC(=O)[C@@H]4NC5(CCCCC5)[C@@]5(C(=O)Nc6cc(Cl)ccc65)[C@H]4c4cccc(Cl)c4F)(CC2)CC3)CC1` (stereo partly drawn) [Cpd. No. 31, (3′R,4′S,5′R)-6″-chloro-4′-(3-chloro-2-fluorophenyl)-N-(4-(4-((2-(2,6-dioxopiperidin-3-yl)-1-oxoisoindolin-4-yl)ethynyl)-4-methylpiperidine-1-carbonyl)bicyclo[2.2.2]octan-1-yl)-2″-oxodispiro[cyclohexane-1,2′-pyrrolidine-3′,3″-indoline]-5′-carboxamide], for which the IC50 turned out to be 2.9 nM.

`O=C1CCC(N2Cc3c(C#CCCCNC(=O)[C@H]4CC[C@H](NC(=O)[C@@H]5NC6(CCCCC6)[C@@]6(C(=O)Nc7cc(Cl)ccc76)[C@H]5c5ccccc5F)CC4)cccc3C2=O)C(=O)N1` (stereo partly drawn) [Cpd. No. 25, (3′R,4′S,5′R)-6″-chloro-N-(4-((5-(2-(2,6-dioxopiperidin-3-yl)-1-oxoisoindolin-4-yl)pent-4-yn-1-yl)carbamoyl)cyclohexyl)-4′-(2-fluorophenyl)-2″-oxodispiro[cyclohexane-1,2′-pyrrolidine-3′,3″-indoline]-5′-carboxamide]: the IC50 is above 100 nM.

Turning to `CC(C)(C)C[C@@H]1N[C@@H](C(=O)NC23CCC(C(=O)N4CCC(C#Cc5cccc6c5CN(C5CCC(=O)NC5=O)C6=O)CC4)(CC2)CC3)[C@H](c2cccc(Cl)c2F)[C@@]1(C#N)c1ccc(Cl)cc1F` (stereo partly drawn) [Cpd. No. 38], the IC50 was 56 nM.

Turning to `O=C1CCC(N2Cc3c(C#CC4CN(C(=O)[C@H]5CC[C@H](NC(=O)[C@@H]6NC7(CCCCC7)[C@@]7(C(=O)Nc8cc(Cl)ccc87)[C@H]6c6cccc(Cl)c6F)CC5)C4)cccc3C2=O)C(=O)N1` (stereo partly drawn) [Cpd. No. 32, (3′R,4′S,5′R)-6″-chloro-4′-(3-chloro-2-fluorophenyl)-N-(4-(3-((2-(2,6-dioxopiperidin-3-yl)-1-oxoisoindolin-4-yl)ethynyl)azetidine-1-carbonyl)cyclohexyl)-2″-oxodispiro[cyclohexane-1,2′-pyrrolidine-3′,3″-indoline]-5′-carboxamide], the IC50 was 1.3 nM.

These data come from patent US20210309666A1, “SMALL MOLECULE MDM2 PROTEIN DEGRADERS” (THE REGENTS OF THE UNIVERSITY OF MICHIGAN, priority 2018, published 2021).
